By pIC50 is commonly meant −log10 of the IC50, conventionally taken in molar units.

The target in the test is Tyrosine-protein kinase Mer (Homo sapiens) (UniProt Q12866). The test can be described thus: Inhibition of FLAG-tagged MER (unknown origin) transfected in Cos-7cells assessed as phosphorylation level incubated for 1 hr by ELISA.

pIC50: −log10 of the molar value.

Tyrosine-protein kinase Mer (Homo sapiens), sequence (Q12866 whole entry, looked up): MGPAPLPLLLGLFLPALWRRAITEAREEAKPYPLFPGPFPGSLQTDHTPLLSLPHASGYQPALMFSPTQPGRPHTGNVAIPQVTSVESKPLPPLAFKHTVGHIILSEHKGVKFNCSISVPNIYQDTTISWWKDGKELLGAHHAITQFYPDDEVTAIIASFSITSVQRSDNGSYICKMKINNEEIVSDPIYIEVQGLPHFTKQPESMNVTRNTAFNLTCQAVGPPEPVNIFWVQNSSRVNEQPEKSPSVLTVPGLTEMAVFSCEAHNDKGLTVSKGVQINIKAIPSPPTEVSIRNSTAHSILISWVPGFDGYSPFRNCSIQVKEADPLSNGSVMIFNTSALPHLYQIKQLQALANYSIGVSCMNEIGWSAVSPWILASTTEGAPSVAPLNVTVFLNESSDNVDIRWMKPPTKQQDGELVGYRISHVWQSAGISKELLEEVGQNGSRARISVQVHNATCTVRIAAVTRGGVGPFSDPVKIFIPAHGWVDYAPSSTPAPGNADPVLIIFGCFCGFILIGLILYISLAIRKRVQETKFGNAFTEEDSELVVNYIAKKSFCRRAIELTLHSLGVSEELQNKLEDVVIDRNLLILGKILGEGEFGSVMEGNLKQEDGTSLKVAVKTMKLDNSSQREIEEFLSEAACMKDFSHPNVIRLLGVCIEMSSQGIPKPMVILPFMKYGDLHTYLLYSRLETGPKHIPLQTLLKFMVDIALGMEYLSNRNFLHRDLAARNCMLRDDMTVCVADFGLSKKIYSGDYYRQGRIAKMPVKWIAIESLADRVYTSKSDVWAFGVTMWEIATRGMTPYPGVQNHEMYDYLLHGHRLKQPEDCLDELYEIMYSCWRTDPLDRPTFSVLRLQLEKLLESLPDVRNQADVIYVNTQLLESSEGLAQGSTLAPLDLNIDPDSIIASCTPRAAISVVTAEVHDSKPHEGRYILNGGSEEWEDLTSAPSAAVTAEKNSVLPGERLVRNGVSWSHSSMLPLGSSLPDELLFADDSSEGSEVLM

For the compound `Cc1nc(-c2c(C)nn(C)c2C)ccc1-c1nnc(N(C)Cc2ccc3nccn3c2)o1`, the pIC50 is 5.80. `Cc1cc(-c2c(C)nn(C)c2C)cnc1-c1nnc(N(C)Cc2ccc3ncc(-c4ccc(CN(C)C)cc4)n3c2)o1`: the negative logarithm of the IC50 (pIC50) is 7.80. Next, `COc1cc(-c2c(C)nn(C)c2C)ccc1-c1nnc(N(C)Cc2ccc3nccn3c2)o1`: 6.30; `Cc1cc(-c2c(C)nn(C)c2C)cnc1-c1nnc(N(C)Cc2ccc3ncc(-c4cccc(CN(C)C)c4)n3c2)o1`: 7.49; `Cc1cc(-c2c(C)nn(C)c2C)cnc1-c1nnc(N(C)Cc2ccc3nccn3c2)o1`: 6.10. Next, `Cc1cc(-c2c(C)nn(C)c2C)ccc1-c1nnc(N(C)Cc2ccc3ncc(-c4cnn(CCN(C)C)c4)n3c2)o1`: 7.70; `Cc1nn(C)c(C)c1-c1ccc(-c2nnc(N(C)Cc3ccc4nccn4c3)o2)c(F)c1`: 6.50; `Cc1cc(-c2c(C)nn(C)c2C)cnc1-c1nnc(N(C)Cc2ccc3ncc(-c4ccc(CN(C)C)cn4)n3c2)o1`: 7.89.

Consider `CN1CCN(Cc2ccc(-c3ccc(CO[C@H]4CCC[C@@H]4NC(=O)c4cc(-c5cnn(C)c5)cnc4N)cc3)cc2)CC1` [US10125118, Example 172], for which the pIC50 was 8.10. Next, `Cc1cc(-c2c(C)nn(C)c2C)ccc1-c1nnc(N(C)Cc2ccc3nccn3c2)o1`: 7.49.

On to `Cc1cc(-c2c(C)nn(C)c2C)cnc1-c1nnc(N(C)Cc2ccc3ncc(-c4ccc(CN(C)C)nc4)n3c2)o1`, for which the pIC50 is 7.00. Next, `Cc1nn(C)c(C)c1-c1ccc(-c2nnc(N(C)Cc3ccc4nccn4c3)o2)cc1`: 6.70; `Cc1cc(-c2c(C)nn(C)c2C)ccc1-c1nnc(N(C)Cc2ccc3ncc(-c4ccccc4)n3c2)o1`: 7.49. Take `Cc1cc(-c2c(C)nn(C)c2C)ccc1-c1nnc(N(C)Cc2ccc3ncc(C4CCN(C)CC4)n3c2)o1`: the pIC50 is 6.60. `Cc1cc(-c2c(C)nc(C)n2C)ccc1-c1nnc(N(C)Cc2ccc3nccn3c2)o1`: the pIC50 is 6.30. Next, `Cc1cc(-c2c(C)nn(C)c2C)ccc1-c1nnc(N(C)Cc2ccc3ncc(-c4cnn(C)c4)n3c2)o1`: 7.89; `Cc1cc(-c2c(C)nn(C)c2C)cnc1-c1nnc(N(C)Cc2ccc3ncc(-c4cnn(CCN(C)C)c4)n3c2)o1`: 6.70. Next, `Cc1cc(-c2c(C)nn(C)c2C)ccc1-c1nnc(N(C)Cc2ccc3ncc(C(=O)N(C)C)n3c2)o1`: 7.49; `Cc1cc(-c2c(C#N)nn(C)c2C)ccc1-c1nnc(N(C)Cc2ccc3nccn3c2)o1`: 6.50. With `Cc1cc(-c2c(C)n[nH]c2C)ccc1-c1nnc(N(C)Cc2ccc3nccn3c2)o1`, the pIC50 is 5.60. Next, `Cc1cc(-c2cnn(C)c2C)ccc1-c1nnc(N(C)Cc2ccc3nccn3c2)o1`: 7.10.

For the origin of these results see BindingDB's records for doi:10.1021/acs.jmedchem.1c00920 (Astrazeneca, 2021).
